According to US9481667B2, “Salts and solid forms of isoquinolinones and composition comprising and methods of using the same” (Infinity Pharmaceuticals, Inc., priority 2013, dated 2016):
In brackets after ≈: the same amount, converted by molar mass. Counter-ions that a name gives are not always drawn. One block for each molecule: values may come before it.

Key:
Assay type in all cases: physicochemical
[1] = Thermodynamic aqueous solubility; settings: aqueous, thermodynamic from solid
[2] = Stability on standing at ambient/room conditions
Excerpt: The bis-sulfuric acid salt is difficult to crystallise in an anhydrous environment. The experiment in methanol produced a clear solution, which then became an oil after solvent evaporation.

[3] = Storage at 40° C./75% RH (solid-state stability); settings: for Stability on storage at 40° C./75% RH: 1 week, solid form by XRPD
Experimental: The crystalline solids were filtered, dried at ambient conditions, and stored at 40° C./75% RH for 1 week and analyzed by ^1H NMR/IC.
Samples from the screen using amorphous free base Compound 1 were analysed by ^1H-NMR and DSC, and re-analysis by XRPD was also carried out after drying at 50° C./vacuum and storage at 40° C./75% RH (the same sample was dried and stored at elevated humidity).

[4] = Storage at 25° C./93% RH (solid-state stability); settings: for Stability on storage at 25° C./93% RH: 1 week, solid form by XRPD
[5] = Free base solubility assessment in solvents
Experimental: Approximately 11 mg (0.022 mmol) portions of the free base Form 1 of Compound 1 (i.e., the compound of formula (I)) were weighed into 2 ml screw-topped HPLC vials. One of 15 solvents was added to each vial in a number of aliquots (up to 100 volumes), with shaking and if necessary with heating to 40° C., in an attempt to achieve dissolution.

[6] = Gravimetric vapour sorption (GVS)
Experimental: Sorption isotherms were obtained using a Hiden IGASorp moisture sorption analyser, controlled by CFRSorp software. The sample temperature was maintained at 25° C. by a Huber re-circulating water bath. The humidity was controlled by mixing streams of dry and wet nitrogen, with a total flow rate of 250 ml/min. The relative humidity (RH) was measured by a calibrated Vaisala RH probe (dynamic range of 0-95% RH), located near the sample. The weight change, (mass relaxation) of the sample as a function of % RH was constantly monitored by the microbalance (accuracy ±0.001 mg). Typically 10-20 mg of sample was placed in a tared mesh stainless steel basket under ambient conditions. The sample was loaded and unloaded at 40% RH and 25° C. (typical room conditions). A moisture sorption isotherm was performed as outlined below (2 scans giving 1 complete cycle). The standard isotherm was performed at 25° C. at 10% RH intervals over a 0-90% RH range.
The software uses a least squares minimisation procedure together with a model of the mass relaxation, to predict an asymptotic value. The measured mass relaxation value must be within 5% of that predicted by the software, before the next % RH value is selected. The minimum equilibration time was set to 1 hour and the maximum to 4 hours. The sample was recovered after completion of the isotherm and re-analysed by XRPD.

[7] = listed as Compound 1 Free Base Form 1
[8] = listed as amorphous free base Compound 1

- solubility thermodynamic ([1]; pH 1.9, water, 0.5 g scale-up salts, pH of solution reported separately): 1900 µg/mL
- Crystallinity after standing ([2]; RT, 24 hours): decreases
- Stability at ambient conditions ([2]; converts to Form 1 by hydration): unstable
Structure (SMILES): COc1cc(-c2cccc3cc([C@H](C)Nc4nc(N)ncc4C#N)n(-c4ccccc4)c(=O)c23)ccn1 [(S)-2-amino-4-((1-(8-(2-methoxypyridin-4-yl)-1-oxo-2-phenyl-1,2-dihydroisoquinolin-3-yl)ethyl)amino)pyrimidine-5-carbonitrile]

- Stability at 40° C./75% RH ([3]; after 1 week): Very slight changes
- Stability at 25° C./93% RH ([4]; after 1 week): Very slight changes
Structure (SMILES): CC(=O)O.COc1cc(-c2cccc3cc([C@H](C)Nc4nc(N)ncc4C#N)n(-c4ccccc4)c(=O)c23)ccn1.COc1cc(-c2cccc3cc([C@H](C)Nc4nc(N)ncc4C#N)n(-c4ccccc4)c(=O)c23)ccn1 [Batch 2 of Form 6]

- solvent volumes to dissolve ([5]; 2-MeTHF, free base Form 1, shaking, if necessary heating to 40° C.): 50 vol.
- solvent volumes to dissolve ([5]; DMSO, free base Form 1, shaking, if necessary heating to 40° C.): 5 vol.
- solvent volumes to dissolve ([5]; EtOAC, free base Form 1, did not dissolve in up to 100 vol.): > 100 vol.
- solvent volumes to dissolve ([5]; EtOH/H2O, free base Form 1, did not dissolve in up to 100 vol.): > 100 vol.
- solvent volumes to dissolve ([5]; EtOH, free base Form 1, did not dissolve in up to 100 vol.): > 100 vol.
- solvent volumes to dissolve ([5]; H2O, free base Form 1, did not dissolve in up to 100 vol.): > 100 vol.
- solvent volumes to dissolve ([5]; MIBK, free base Form 1, shaking, if necessary heating to 40° C.): 40 vol.
- solvent volumes to dissolve ([5]; MeOH/anisole (50/50 v/v), free base Form 1, shaking, if necessary heating to 40° C.): 10 vol.
- solvent volumes to dissolve ([5]; MeOH, free base Form 1, shaking, if necessary heating to 40° C.): 75 vol.
- solvent volumes to dissolve ([5]; TBME, free base Form 1, did not dissolve in up to 100 vol.): > 100 vol.
- solvent volumes to dissolve ([5]; THF, free base Form 1, shaking, if necessary heating to 40° C.): 40 vol.
- solvent volumes to dissolve ([5]; acetone, free base Form 1, did not dissolve in up to 100 vol.): > 100 vol.
- solvent volumes to dissolve ([5]; acetonitrile, free base Form 1, did not dissolve in up to 100 vol.): > 100 vol.
- solvent volumes to dissolve ([5]; anisole, free base Form 1, did not dissolve in up to 100 vol.): > 100 vol.
- solvent volumes to dissolve ([5]; chloroform, free base Form 1, shaking, if necessary heating to 40° C.): 40 vol.
Structure (SMILES): COc1cc(-c2cccc3cc([C@H](C)Nc4nc(N)ncc4C#N)n(-c4ccccc4)c(=O)c23)ccn1 [Compound 1, (S)-2-amino-4-((1-(8-(2-methoxypyridin-4-yl)-1-oxo-2-phenyl-1,2-dihydroisoquinolin-3-yl)ethyl)amino)pyrimidine-5-carbonitrile]

- Storage 40° C./75% RH for 1 week: HPLC Purity ([3]; 0.5 g scale-up salts): HPLC Purity: Unchanged
- Storage 40° C./75% RH for 1 week: XRPD (D8) ([3]; 0.5 g scale-up salts): XRPD (D8): Unchanged
- Stability on storage at 40° C./75% RH [3]: stable
- Stability on storage at 40° C./75% RH ([3]; listed as mono-1,2-ethanedisulfonic acid salt): stable
- Storage 25° C./93% RH for 1 week: HPLC Purity ([4]; 0.5 g scale-up salts): HPLC Purity: Unchanged
- Storage 25° C./93% RH for 1 week: XRPD (D8) ([4]; 0.5 g scale-up salts): XRPD (D8): Unchanged
- XRPD post GVS (C2) ([6]; 0.5 g scale-up salts): Unchanged
- GVS Single cycle ([6]; hygroscopicity, 25° C., 0-90% RH): Moderately hygroscopic
Structure (SMILES): COc1cc(-c2cccc3cc([C@H](C)Nc4nc(N)ncc4C#N)n(-c4ccccc4)c(=O)c23)ccn1 [Form 1 of the 1,2-ethanedisulfonic acid salt of Compound 1] [(S)-2-amino-4-((1-(8-(2-methoxypyridin-4-yl)-1-oxo-2-phenyl-1,2-dihydroisoquinolin-3-yl)ethyl)amino)pyrimidine-5-carbonitrile]

- Stability on storage at 40° C./75% RH [3]: stable
- Stability on storage at 40° C./75% RH [3, 7]: No changes in form after 1 week
- Stability on storage at 40° C./75% RH ([3]; listed as Free base Form 1): did not show any changes
- Stability on storage at 25° C./93% RH [4]: converts to Form 3
- Stability on storage at 25° C./93% RH [4, 7]: Conversion to Form 3 (FIG. 31)
- Stability on storage at 25° C./93% RH ([4]; listed as Free base Form 1): conversion to Form 3
- RH range in which hydration to Form 3 occurs [6]: 80-90 % RH
- GVS: moisture on loading ([6]; loaded at 40% RH, 25° C., listed as Compound 1 Free Base Form 1): 0.7 % w/w
- solubility thermodynamic ([1]; water, at pH 6.85): 4 µg/mL (≈ 8.17 µM)
Structure (SMILES): COc1cc(-c2cccc3cc([C@H](C)Nc4nc(N)ncc4C#N)n(-c4ccccc4)c(=O)c23)ccn1 [Form 1 of the free base of Compound 1, (S)-2-amino-4-((1-(8-(2-methoxypyridin-4-yl)-1-oxo-2-phenyl-1,2-dihydroisoquinolin-3-yl)ethyl)amino)pyrimidine-5-carbonitrile]
- GVS: form change with humidity ([6]; above 80% RH, listed as Free base Form 1): hydrates to a higher hydrate above 80% RH, but this re-converts to Form 1 on desorption

- Stability on storage at 40° C./75% RH [3, 8]: No changes after 1 week
- Storage at elevated humidity ([3]; elevated humidity conditions, solid form): No crystallisation
- Stability on storage at 25° C./93% RH [4, 8]: No changes after 1 week
Structure (SMILES): COc1cc(-c2cccc3cc([C@H](C)Nc4nc(N)ncc4C#N)n(-c4ccccc4)c(=O)c23)ccn1 [amorphous free base of Compound 1, (S)-2-amino-4-((1-(8-(2-methoxypyridin-4-yl)-1-oxo-2-phenyl-1,2-dihydroisoquinolin-3-yl)ethyl)amino)pyrimidine-5-carbonitrile]
